Data as given in PubChem BioAssay (NCI).
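Results reflect a 48-hour exposure of cells in 96-well plates to compound at five concentrations. GI50 is the concentration that inhibits growth by half. TGI: total growth inhibition.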

What was measured:
Experiment in all cases: NCI tumour cell line growth inhibition, 48 h
RPMI-8226 leukemia = system: RPMI-8226 leukemia
A549 NSCLC = system: A549 NSCLC
PC-3 prostate = system: PC-3 prostate
NCI/ADR-RES ovarian = system: NCI/ADR-RES ovarian
COLO 205 colon = system: COLO 205 colon
MCF7 breast = system: MCF7 breast
SW-620 colon = system: SW-620 colon
MDA-MB-435 = system: MDA-MB-435
NCI-H23 lung = system: NCI-H23 lung
SF-539 CNS = system: SF-539 CNS

| SMILES | GI50 (RPMI-8226 leukemia) | TGI (RPMI-8226 leukemia) | GI50 (A549 NSCLC) | TGI (A549 NSCLC) | GI50 (PC-3 prostate) | TGI (PC-3 prostate) | GI50 (NCI/ADR-RES ovarian) | TGI (NCI/ADR-RES ovarian) | GI50 (COLO 205 colon) | TGI (COLO 205 colon) | GI50 (MCF7 breast) | TGI (MCF7 breast) | GI50 (SW-620 colon) | TGI (SW-620 colon) | GI50 (MDA-MB-435) | TGI (MDA-MB-435) | GI50 (NCI-H23 lung) | TGI (NCI-H23 lung) | GI50 (SF-539 CNS) | TGI (SF-539 CNS) |
| --- | --- | --- | --- | --- | --- | --- | --- | --- | --- | --- | --- | --- | --- | --- | --- | --- | --- | --- | --- | --- |
| COc1cccc2c1C(=O)c1c(O)c3c(c(O)c1C2=O)CC(O)(/C(C)=N/NC(=O)CCC(=O)N/N=C(\C)C1(O)Cc2c(O)c4c(c(O)c2C(OC2CC(N)C(O)C(C)O2)C1)C(=O)c1c(OC)cccc1C4=O)CC3OC1CC(N)C(O)C(C)O1 (configuration not stated) | 0.209 µM | 4.17 µM | 0.414 µM | 1.81 µM | 0.958 µM | > 21.2 µM | 13.5 µM | > 50 µM | 0.157 µM | 0.795 µM | 0.0676 µM | 7.41 µM | 0.193 µM | 5.36 µM | 552 nM | 3.29 µM | 0.186 µM | 1.43 µM | 0.179 µM | 0.859 µM |
| C[C@H]1Oc2cc(cnc2N)-c2c(nn(C)c2C#N)CN(C)C(=O)c2ccc(F)cc21 | > 100 µM | > 100 µM | 25.4 µM | > 100 µM | > 100 µM | > 100 µM | 65.5 µM | > 100 µM | 5.24 µM | 51.4 µM | 5.42 µM | > 100 µM | 35.6 µM | > 100 µM | 48600 nM | > 100 µM | 59.1 µM | > 100 µM | 59.5 µM | > 100 µM |
| O=C1c2ccccc2C2(O)c3cc4ccccc4cc3OC12O (configuration not stated) | – | > 100 µM | – | > 100 µM | – | – | – | – | – | > 100 µM | – | – | – | > 100 µM | – | – | – | > 100 µM | – | > 100 µM |
| O=c1[nH]c(=O)n(C2CC(O)C(CO)O2)cc1CO (configuration not stated) | > 100 µM | > 100 µM | > 100 µM | > 100 µM | > 100 µM | > 100 µM | > 100 µM | > 100 µM | > 100 µM | > 100 µM | > 100 µM | > 100 µM | > 100 µM | > 100 µM | > 100000 nM | > 100 µM | 31 µM | > 100 µM | 21.1 µM | > 100 µM |
| CCCCCCC[CH2][Sn]1([CH2]CCCCCCC)[O]C(=O)c2cccnc2[S]1 | > 100 µM | > 100 µM | > 100 µM | > 100 µM | – | – | – | – | > 100 µM | > 100 µM | – | – | > 100 µM | > 100 µM | – | – | > 100 µM | > 100 µM | > 100 µM | > 100 µM |
| Ic1ccc(-n2nnnc2-c2cnoc2-c2ccccc2)cc1 | 22.4 µM | > 64 µM | > 58.4 µM | > 100 µM | > 34.4 µM | > 71.4 µM | 33 µM | > 85.2 µM | > 59 µM | > 100 µM | 35.2 µM | > 100 µM | 39.6 µM | > 100 µM | 24500 nM | > 57.5 µM | 35.4 µM | > 81 µM | – | 3.98 µM |
| O=C(O)CSc1n[nH]c(-c2ccccc2)n1 | – | > 100 µM | – | > 100 µM | – | – | – | – | – | > 100 µM | – | – | – | > 100 µM | – | – | – | > 100 µM | – | > 100 µM |
| Cc1c(Cl)cccc1N1C(=O)C(Cl)=C(Cl)C1=O | – | > 89.8 µM | – | > 100 µM | – | – | – | – | – | > 100 µM | – | – | – | > 100 µM | – | – | – | > 100 µM | – | > 100 µM |
| CCN(CC)CCOc1ccc(/C=C2\CC3C4CC=C5C[C@@H](O)CC[C@]5(C)C4CC[C@]3(C)C2=O)cc1OC (some centres not stated) | – | – | 11.6 µM | 26.1 µM | 3.48 µM | > 39.1 µM | 16.2 µM | 56.1 µM | – | – | 9.6 µM | 54.5 µM | 2.54 µM | > 20.5 µM | 1940 nM | 3.74 µM | 7.71 µM | > 60.6 µM | 3.38 µM | 12.7 µM |
| CCC1C2C=CC(CC2)N1S(=O)(=O)c1ccc(C)cc1 (configuration not stated) | – | 42.3 µM | – | > 100 µM | – | – | – | – | – | 54.5 µM | – | – | – | 50.3 µM | – | – | – | – | – | 76.6 µM |
| CCOC(=O)C1(c2ccccc2)CCC(=O)CC1 | – | – | – | > 100 µM | – | – | – | – | – | > 100 µM | – | – | – | > 100 µM | – | – | – | > 100 µM | – | – |
| COc1ccc(/C(=N\NC(=O)C(N)=O)C(c2ccc(OC)cc2)C2(O)C(=O)Nc3c(Cl)cccc32)cc1 (configuration not stated) | – | > 100 µM | – | > 100 µM | – | – | – | – | – | > 100 µM | – | – | – | > 100 µM | – | – | – | > 100 µM | – | – |
| COc1ccc(NC(=O)/C(N=O)=C(/C)O)cc1 | – | > 100 µM | – | > 100 µM | – | – | – | – | – | – | – | – | – | 30 µM | – | – | – | > 100 µM | – | > 100 µM |
| O=C(O)[C@H](NS(=O)(=O)c1ccc2ccccc2c1)c1ccccc1 | – | > 100 µM | – | – | – | – | – | – | – | > 100 µM | – | – | – | – | – | – | – | > 100 µM | – | > 100 µM |
| COC12C=C/C(=C(/C(=O)OCc3ccncc3)C(=O)CCCCCCCCC3(OC)C=C/C(=C(/C(=O)OCc4ccncc4)C(=O)CCCCCCCC1)O3)O2 | 0.196 µM | 1.1 µM | 0.979 µM | 2.8 µM | 0.761 µM | 2.67 µM | 0.774 µM | 3.93 µM | 0.78 µM | 2.18 µM | – | – | 0.227 µM | 1.26 µM | 121 nM | 0.312 µM | 0.178 µM | 0.762 µM | 0.877 µM | 2.03 µM |
| Cc1ccc(Cn2c(C)nc3c2C(=O)c2ccccc2C3=O)cc1 | – | – | – | 34.9 µM | – | – | – | – | – | > 100 µM | – | – | – | > 100 µM | – | – | – | 20.5 µM | – | 18.7 µM |
| Cc1ccc(S(=O)(=O)N/N=C/c2oc(-c3ccncc3)c(-c3ccncc3)c2[N+](=O)[O-])cc1 | – | – | – | > 100 µM | – | – | – | – | – | > 100 µM | – | – | – | > 100 µM | – | – | – | > 100 µM | – | > 100 µM |
| COC1[C@@H](OC(C)=O)[C@@H](NC(=O)C(Cl)(Cl)Cl)C(I)[C@@H](N2C(=O)c3ccccc3C2=O)[C@H]1OC (some centres not stated) | – | > 100 µM | – | > 100 µM | – | – | – | – | – | > 100 µM | – | – | – | > 100 µM | – | – | – | > 100 µM | – | > 100 µM |
